PMC11470957, “Principles of paralog-specific targeted protein degradation engaging the C-degron E3 KLHDC2” (Nature Communications, 2024)
Where “and” joins values, the source holds several entries; their conditions need not be identical. Equal values may be shown once.

Key:
KLHDC2 = biological target: T1, KLHDC2 (Homo sapiens, UniProt Q9Y2U9); assay: Western blot of KLHDC2 levels after cellular dosing
T1 sequence (Q9Y2U9 1-406): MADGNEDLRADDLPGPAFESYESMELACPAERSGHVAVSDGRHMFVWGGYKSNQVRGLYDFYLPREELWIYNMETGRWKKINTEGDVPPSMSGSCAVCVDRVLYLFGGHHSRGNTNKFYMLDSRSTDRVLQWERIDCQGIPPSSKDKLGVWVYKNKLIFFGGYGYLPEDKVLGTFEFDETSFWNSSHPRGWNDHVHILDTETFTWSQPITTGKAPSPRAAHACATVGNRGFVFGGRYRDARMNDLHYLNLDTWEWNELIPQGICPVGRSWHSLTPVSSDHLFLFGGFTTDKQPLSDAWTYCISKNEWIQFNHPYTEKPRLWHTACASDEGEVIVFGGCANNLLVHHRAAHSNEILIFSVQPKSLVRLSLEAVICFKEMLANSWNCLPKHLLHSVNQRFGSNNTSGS

[1] = system: U2OS KLHDC2 KO/rescue and KO cells (proteome); assay: TMT-based total proteomics of dosed U2OS cells; conditions: 1 μM, 24 h

COC(=O)CNC(=O)Cc1csc(-c2ccc3cccc(OCCN4CCN(C(=O)C[C@@H]5N=C(c6ccc(Cl)cc6)c6c(sc(C)c6C)-n6c(C)nnc65)CC4)c3c2)n1 [SJ46420]
KLHDC2 level, Western blot quantification (DMSO = 100) (KLHDC2; Fig S6i, SKBR3, 5uM): 108.759 and 120.207
KLHDC2 level, Western blot quantification (DMSO = 100) (KLHDC2; Fig S6i, U2OS, 5uM): 115.927 and 106.939
KLHDC2 level, Western blot quantification (DMSO = 100) (KLHDC2; Fig S6h, U2OS Time course, 5uM, 2hr): 102.827 and 100.635
KLHDC2 level, Western blot quantification (DMSO = 100) (KLHDC2; Fig S6h, U2OS Time course, 5uM, 4hr): 116.419 and 128.136
KLHDC2 level, Western blot quantification (DMSO = 100) (KLHDC2; Fig S6h, U2OS Time course, 5uM, 8hr): 157.536 and 145.235
KLHDC2 level, Western blot quantification (DMSO = 100) (KLHDC2; Fig S6h, U2OS Time course, 5uM, 24hr): 121.407 and 133.135
KLHDC2 level, Western blot quantification (DMSO = 100) (KLHDC2; Fig S6d, U2OS KO/rescue Dose Response, 0.156 uM): 140 and 155
KLHDC2 level, Western blot quantification (DMSO = 100) (KLHDC2; Fig S6d, U2OS KO/rescue Dose Response, 0.313 uM): 192 and 220
KLHDC2 level, Western blot quantification (DMSO = 100) (KLHDC2; Fig S6d, U2OS KO/rescue Dose Response, 0.625 uM): 253 and 275
KLHDC2 level, Western blot quantification (DMSO = 100) (KLHDC2; Fig S6d, U2OS KO/rescue Dose Response, 1.25 uM): 345 and 380
KLHDC2 level, Western blot quantification (DMSO = 100) (KLHDC2; Fig S6d, U2OS KO/rescue Dose Response, 2.5 uM): 540 and 580
KLHDC2 level, Western blot quantification (DMSO = 100) (KLHDC2; Fig S6d, U2OS KO/rescue Dose Response, 5 uM): 581 and 620
KLHDC2 level relative to DMSO (100%) (KLHDC2; MDA-MB-468, 2.5µM, 24 h, Fig S6b): 158 +/- 1.9%
KLHDC2 level relative to DMSO (100%) (KLHDC2; MDA-MB-468, 5µM, 24 h, Fig S6b): 172 +/- 4.4%
KLHDC2 level relative to DMSO (100%) (KLHDC2; MDA-MB-468, 10µM, 24 h, Fig S6b): 195 +/- 7.2%
KLHDC2 level relative to DMSO (100%) (KLHDC2; PC3, 0.16µM, 24 h, Fig S6e): 65 +/- 9.7%
KLHDC2 level relative to DMSO (100%) (KLHDC2; PC3, 0.31µM, 24 h, Fig S6e): 68 +/- 8.9%
KLHDC2 level relative to DMSO (100%) (KLHDC2; PC3, 0.63µM, 24 h, Fig S6e): 43 +/- 15%
KLHDC2 level relative to DMSO (100%) (KLHDC2; PC3, 1.3µM, 24 h, Fig S6e): 48 +/- 8.5%
KLHDC2 level relative to DMSO (100%) (KLHDC2; PC3, 2.5µM, 24 h, Fig S6e): 50 +/- 8.6%
KLHDC2 level relative to DMSO (100%) (KLHDC2; PC3, 5µM, 24 h, Fig S6e): 49 +/- 6.1%
KLHDC2 level relative to DMSO (100%) (KLHDC2; PC3, 10µM, 24 h, Fig S6e): 40 +/- 7.2%
KLHDC2 level relative to DMSO (100%) (KLHDC2; SKBR3, 1µM, 2hr, Fig S6g): 98 +/- 2.6%
KLHDC2 level relative to DMSO (100%) (KLHDC2; SKBR3, 1µM, 4hr, Fig S6g): 101 +/- 4.6%
KLHDC2 level relative to DMSO (100%) (KLHDC2; SKBR3, 5µM, 2hr, Fig S6g): 106 +/- 5.8%
KLHDC2 level relative to DMSO (100%) (KLHDC2; SKBR3, 5µM, 4hr, Fig S6g): 122 +/- 6.3%
KLHDC2 level relative to DMSO (100%) (KLHDC2; SKBR3, 5µM, 8hr, Fig S6g): 129 +/- 4.7%
KLHDC2 level relative to DMSO (100%) (KLHDC2; U2OS DC2KO (KLHDC2 knockout), 5µM, 24 h, Fig 6b): 0 +/- 0%
KLHDC2 level relative to DMSO (100%) (KLHDC2; U2OS KO/Rescue, 0.16µM, 24 h, Fig S6d): 146 +/- 12%
KLHDC2 level relative to DMSO (100%) (KLHDC2; U2OS KO/Rescue, 0.31µM, 24 h, Fig S6d): 205 +/- 21%
KLHDC2 level relative to DMSO (100%) (KLHDC2; U2OS KO/Rescue, 0.63µM, 24 h, Fig S6d): 264 +/- 16%
KLHDC2 level relative to DMSO (100%) (KLHDC2; U2OS KO/Rescue, 1µM + co-dosing 1µM MLN4924, 24 h, Fig 6d): 4170 +/- 238%
KLHDC2 level relative to DMSO (100%) (KLHDC2; U2OS KO/Rescue, 1µM, 24 h, Fig 6c): 407 +/- 47%
KLHDC2 level relative to DMSO (100%) (KLHDC2; U2OS KO/Rescue, 1µM, 24 h, Fig 6d): 1460 +/- 196%
KLHDC2 level relative to DMSO (100%) (KLHDC2; U2OS KO/Rescue, 1.3µM, 24 h, Fig S6d): 362 +/- 25%
KLHDC2 level relative to DMSO (100%) (KLHDC2; U2OS KO/Rescue, 2.5µM, 24 h, Fig S6d): 559 +/- 29%
KLHDC2 level relative to DMSO (100%) (KLHDC2; U2OS KO/Rescue, 5µM, 24 h, Fig S6d): 600 +/- 32%
KLHDC2 level relative to DMSO (100%) (KLHDC2; U2OS KO/Rescue, concentration not printed (line after 5µM), 24 h, Fig S6d): 710 +/- 67%
KLHDC2 level relative to DMSO (100%) (KLHDC2; U2OS, 5µM, 2hr, Fig S6h): 101 +/- 1.9%
KLHDC2 level relative to DMSO (100%) (KLHDC2; U2OS, 5µM, 4hr, Fig S6h): 122+/- 8.2%
KLHDC2 level relative to DMSO (100%) (KLHDC2; U2OS, 5µM, 8hr, Fig S6i): 111 +/- 6.4%
KLHDC2 level relative to DMSO (100%) (KLHDC2; U2OS, 5µM, 8hr, Fig S6h): 151 +/- 8.8%
KLHDC2 level relative to DMSO (100%) (KLHDC2; U2OS, 5µM, 24hr, Fig S6h): 127 +/- 8.2%
change of protein levels by TMT proteomics ([1]; KO/rescue U2OS cells): BRD3 was most substantially downregulated, with lesser reductions in the levels of BRD4 and BRD2
change of protein levels by TMT proteomics ([1]; U2OS KLHDC2 KO cells): not observed
